Data: US20260124167A1, “SIRTUIN ACTIVATOR OR EXPRESSION ENHANCER, NAD+ INCREASING AGENT, AND SENESCENT CELL INHIBITOR” (WAKUNAGA PHARMACEUTICAL CO., LTD., priority 2022, published 2026)

Assays:
[1] = target: T1, SIRT1 (Mus musculus, UniProt Q923E4); experiment: SIRT1 activation action (in vivo), cerebral cortex lysate, SIRT1_GLO kit; details: SAMP8 mice, single oral dose, 180 minutes after administration; FIG. 2
T1 construct: from tissue; host or cells: cerebral cortex of SAMP8 mice
T1 sequence (Q923E4 1-737): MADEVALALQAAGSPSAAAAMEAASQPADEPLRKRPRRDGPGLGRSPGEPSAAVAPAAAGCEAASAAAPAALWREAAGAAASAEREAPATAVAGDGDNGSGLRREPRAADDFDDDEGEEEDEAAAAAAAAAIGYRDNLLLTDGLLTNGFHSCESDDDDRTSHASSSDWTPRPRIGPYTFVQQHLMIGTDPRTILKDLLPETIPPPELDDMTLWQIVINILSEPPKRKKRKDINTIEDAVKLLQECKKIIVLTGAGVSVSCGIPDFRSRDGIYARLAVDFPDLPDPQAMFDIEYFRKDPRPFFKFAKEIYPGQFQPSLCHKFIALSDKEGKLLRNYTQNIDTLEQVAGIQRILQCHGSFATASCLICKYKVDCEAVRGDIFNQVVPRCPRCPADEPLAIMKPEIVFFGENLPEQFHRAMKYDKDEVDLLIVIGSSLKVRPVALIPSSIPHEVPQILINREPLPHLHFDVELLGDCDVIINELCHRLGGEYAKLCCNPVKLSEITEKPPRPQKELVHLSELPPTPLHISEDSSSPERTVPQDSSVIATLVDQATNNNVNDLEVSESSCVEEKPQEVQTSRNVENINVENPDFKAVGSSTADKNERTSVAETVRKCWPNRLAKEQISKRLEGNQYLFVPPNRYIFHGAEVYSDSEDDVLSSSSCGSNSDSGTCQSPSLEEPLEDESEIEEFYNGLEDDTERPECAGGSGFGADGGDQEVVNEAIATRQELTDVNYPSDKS
Protocol: (§1) (a) About 5 mg of S-1-propenylcysteine (cis/trans mixture) produced in Preparation Example 2 was weighed precisely, and dissolved in 10 mL of purified water to prepare an administration liquid. (b) About 6 mg of S-1-propenylcysteine (cis/trans mixture) produced in Preparation Example 2 was weighed precisely and dissolved in 1 mL of culture liquid. The liquid was used as a stock solution, diluted appropriately, and subjected to an in vitro test.
(§2) Animals for evaluating the biological activity were bred as follows. Senescence-accelerated mice SAMP8 (male) for testing were purchased from Japan SLC, Inc. After purchase, the animals were acclimatized for one week and used as animals for the evaluation tests.
A SIRT1_GLO kit manufactured by Promega Corporation was purchased to measure the sirtuins activity. A lysate of the cerebral cortex was placed in a 96-well plate, various reaction reagents were added, and then luminous intensity of luciferase was measured by a plate reader.
A single dose of the sample prepared in the above (1) (a) was orally administrated to animals for the evaluation tests in the above (2), and then cerebral cortices of such animals were extracted 15, 30, 60, and 180 minutes later. […] Centrifugation was performed and the sirtuins activity in the supernatant thereof was measured. […]

[2] = test system: SIRT1 protein; experiment: SIRT1 protein increasing action (in vivo), hippocampus, Western Blotting; details: SAMP8 mice, repeated oral administration for two weeks; FIG. 3
Protocol: as §1, §2
(§3) After repeated oral administration of the sample prepared in the above (1) (a) to animals for the evaluation tests in the above (2) for two weeks, hippocampi of such animals were excised. After the hippocampi were crushed using an automatic tissue crusher, the cells were lysed with a RIPA cell lysis buffer manufactured by Millipore Corporation which was diluted 10-fold with purified water added with combined protease/phosphatase inhibitors manufactured by Thermo Fisher Scientific K.K., and then centrifuged (10,000 rpm, 10 min, 4° C.), and the supernatant was used as a cell extract. The cell extract was used for analysis by Western Blotting according to a conventional method. […]

[3] = test system: NAD^+; experiment: NAD+ amount increasing action (in vivo), NAD+/NADH Assay Kit; details: SAMP8 mice, single oral dose (180 minutes later) and mixed with food for one month; FIG. 4
Protocol: as §1, §2
A single dose of the sample prepared in (1) (a) was orally administered to animals for the evaluation tests in the above (2), and then cerebral cortices of such animals were excised 180 minutes later. In addition, the sample prepared in the above (1) (a) was mixed with food and fed to animals for the evaluation tests in the above (2) for one month, and then cerebral cortices of such animals were excised. The NAD^+ amount in the cerebral cortices was measured using NAD^+/NADH Assay Kit manufactured by Dojindo Laboratories. S-1-propenylcysteine increased NAD^+ amount.

[4] = test system: p53 protein; experiment: Suppression of cellular senescence marker p53 protein in the hippocampus (in vivo); details: SAMP8 mice, repeated oral administration for six weeks; FIG. 5
Protocol: as §1, §2
as §3, with “six” for “two”, “a protease inhibitor and a phosphatase inhibitor” for “combined protease/phosphatase inhibitors”, “Roche,” for “Thermo Fisher Scientific K.K.,”

[5] = test system: SIRT1 gene; experiment: Enhancement of SIRT1 gene expression in kidney (in vivo), real-time PCR; details: SAMP8 mice, repeated oral administration for two weeks, FIG. 6
Protocol: as §1, §2
(§4) After repeated oral administration of the sample prepared in the above (1) (a) to the animals for the evaluation tests in the above (2) for two weeks, kidneys of such animals were excised. The kidneys were crushed using an automatic tissue crusher, and then RNA was extracted using a TRIzol solution manufactured by Thermo Fisher Scientific K.K. CDNA was synthesized using PRIMEScript RT reagent Kit with gEraser manufactured by Takara. The synthesized CDNA was subjected to real-time PCR using KAPA SYBR Fast qPCR kit manufactured by Nippon Genetics Co., Ltd. The results are shown in FIG. 6. S-1-propenylcysteine increased the SIRT1 expression in the mouse kidney.

[6] = test system: p16 gene; experiment: Suppression of senescent cell marker p16 gene expression in the kidney (in vivo); details: SAMP8 mice, repeated oral administration for two weeks, real-time PCR; FIG. 7
Protocol: as §1, §2
as §4, with “synthesized cDNA” for “synthesized CDNA”, “FIG. 7. […]” for “FIG. 6. S-1-propenylcysteine increased the SIRT1 expression in the mouse kidney.”

[7] = test system: p21 gene; experiment: Suppression of senescent cell marker p21 gene expression in the kidney (in vivo); details: SAMP8 mice, repeated oral administration for two weeks, real-time PCR; FIG. 7
Protocol: as §1, §2
as §4, with “synthesized cDNA” for “synthesized CDNA”, “FIG. 7. […]” for “FIG. 6. S-1-propenylcysteine increased the SIRT1 expression in the mouse kidney.”

[8] = test system: KIM-1; experiment: Inhibitory action on kidney injuries (in vivo), KIM-1 Western Blotting; details: SAMP8 mice, repeated oral administration for two weeks, FIG. 8
Protocol: as §1, §2
(§5) After repeated oral administration of the sample prepared in the above (1) (a) to the animals for the evaluation tests in the above (2) for two weeks, kidneys of such animals were excised. After the kidneys were crushed using an automatic tissue crusher, the cells were lysed with an RIPA cell lysis buffer manufactured by Millipore Corporation which was diluted 10-fold with purified water added with a protease inhibitor and a phosphatase inhibitor manufactured by Roche and then centrifuged (10,000 rpm, 10 min, 4° C.), and the supernatant was used as a cell extract. The cell extract was used for analysis by Western Blotting according to a conventional method. […]

[9] = test system: lipocalin-2 (NGAL); experiment: Inhibitory action on kidney injuries (in vivo), NGAL Western Blotting; details: SAMP8 mice, repeated oral administration for two weeks, FIG. 8
Protocol: as §1, §2, §5

[10] = test system: Senescence-accelerated mice SAMP8; experiment: Cognitive/memory retention action (in vivo), passive avoidance test; details: mixed with food for four months, holding trial after two months, FIG. 9
Protocol: as §1, §2
The sample prepared in the above (1) (a) was mixed with food and fed to animals for evaluation test in the above (2) for four months, and then a passive avoidance test was performed. The passive avoidance test is a test utilizing a habit that a mouse prefers a dark place, and on Day 1, a mouse already in a bright room was moved to a dark room while receiving an electrical shock (50 V/1 second), and the time it took for the mouse to enter the dark room was taken as response latency of an acquisition trial. After two months, the mouse was put in the bright room again and the time it took to move to the dark room (the response latency of a holding trial) was used as an index of memory.

[11] = test system: NAD^+; experiment: NAD+ amount increasing action in kidney, skeletal muscle, and liver (in vivo); details: SAMP8 mice, single oral dose, 60 minutes later; FIG. 10
Protocol: as §1, §2
A single dose of the sample prepared in the above (1) (a) was orally administrated to animals for the evaluation tests in the above (2), and then cerebral cortexes, livers, kidneys, and skeletal muscles of such animals were extracted 60 minutes later. The NAD^+ amounts in the cerebral cortexes, livers, kidneys, and skeletal muscles were measured using NAD^+/NADH Assay Kit manufactured by Dojindo Laboratories. S-1-propenylcysteine increased the NAD^+ amount.

[12] = test system: SIRT1 protein; experiment: SIRT1 protein increasing action in cerebral cortex, hippocampus, heart, lung, liver, kidney, and skeletal muscle (in vivo); details: SAMP8 mice, about 10 mg in 10 mL liquid, repeated oral administration for two weeks; FIG. 11
Protocol: as §2
About 10 mg of S-1-propenylcysteine (cis/trans mixture) produced in Preparation Example 2 was weighed precisely, and dissolved in 10 mL of purified water to prepare an administration liquid. After repeated oral administration of the prepared sample to animals for the evaluation tests in the above (2) for two weeks, cerebral cortexes, hippocampi, hearts, lungs, livers, kidneys, and skeletal muscles of such animals were excised. After the cerebral cortexes, hippocampi, hearts, lungs, livers, kidneys, and skeletal muscles were crushed using an automatic tissue crusher, the cells were lysed with a RIPA cell lysis buffer manufactured by Millipore Corporation which was diluted 10-fold with purified water added with combined protease/phosphatase inhibitors manufactured by Thermo Fisher Scientific K.K., and then centrifuged (10,000 rpm, 10 min, 4° C.), and the supernatant was used as a cell extract. The cell extract was used for analysis by Western Blotting according to a conventional method. […]

[13] = test system: SIRT1 protein; experiment: SIRT1 protein increasing action in hypothalamus (in vivo); details: SAMP8 mice fed diet mixed with sample (0.001% liquid) for 10 months; FIG. 12
Protocol: S-1-propenylcysteine (cis/trans mixture) produced in Preparation Example 2 was dissolved at a concentration of 0.001% in purified water to prepare an administration liquid. Animals for evaluating the biological activity were bred as follows. Senescence-accelerated mice SAMR1 (male) and SAMP8 (male) for testing were purchased from Japan SLC, Inc. After purchase, the animals were acclimatized for one week and used as animals for the evaluation tests. These animals for the evaluation tests were fed with regular diet and SAMP8 were fed with the diet mixed with the sample prepared above for 10 months, and then hypothalamuses of such animals were excised. After the hypothalamuses were crushed using an automatic tissue crusher, the cells were lysed with a RIPA cell lysis buffer manufactured by Millipore Corporation which was diluted 10-fold with purified water added with combined protease/phosphatase inhibitors manufactured by Thermo Fisher Scientific K.K., and then centrifuged (10,000 rpm, 10 min, 4° C.), and the supernatant was used as a cell extract. The cell extract was used for analysis by Western Blotting according to a conventional method. An anti-SIRT1 antibody (manufactured by Biolegend) and an anti-β-actin antibody (manufactured by Fujifilm Wako Pure Chemical Corporation) were used as antibodies. S-1-propenylcysteine increased the SIRT1 protein mass.

[14] = test system: SIRT1 protein; experiment: SIRT1 protein amount-increasing effect in liver and heart (in vivo); set-up: species or system mice; details: animals prepared as in (12) (SAMR1, SAMP8), repeated oral administration for two weeks; FIG. 13

CC=CSC[C@H](N)C(=O)O [S-1-propenylcysteine] was tested. Which “sirtuin activity in cerebral cortex” value [1] did it give?
The value was “increased”.

What about the “SIRT1 protein mass in hippocampus” value [2] of the same compound?
The value was “increased”.

What about the “NAD^+ amount in cerebral cortices” value [3] of the same compound?
The value was “increased”.

And the “p53 protein mass in hippocampus” value [4]?
The value was “reduced”.

What about the “SIRT1 expression in kidney” value [5] of the same compound?
Its value is “increased”.

What about the “cells expressing p16 gene in the kidneys” value [6] of the same compound?
Its value is “reduced”.

And the “cells expressing p21 gene in the kidneys” value [7]?
The value was “reduced”.

What about the “KIM-1 (marker of kidney injuries) in kidney” value [8] of the same compound?
Its value is “reduced”.

What about the “NGAL (marker of kidney injuries) in kidney” value [9] of the same compound?
Its value is “reduced”.

What about the “cognitive and memory functions (response latency, passive avoidance test)” value [10] of the same compound?
Its value is “ameliorated aging-related decline in cognitive and memory functions”.

What about the “NAD^+ amount in cerebral cortexes, livers, kidneys, and skeletal muscles” value [11] of the same compound?
Its value is “increased”.

What about the “SIRT1 protein mass in cerebral cortexes, hippocampi, hearts, lungs, livers, kidneys, and skeletal muscles” value [12] of the same compound?
Its value is “increased”.

What about the “SIRT1 protein mass in hypothalamus” value [13] of the same compound?
The value was “increased”.

What about the “SIRT1 protein mass in livers and hearts” value [14] of the same compound?
The value was “increased”.
